Results on three compounds are retold here after paper PMC9236245, “Glycyrrhiza uralensis promote the metabolism of toxic components of Aconitum carmichaeli by CYP3A and alleviate the development of chronic heart failure” (PLoS ONE, 2022).

Series [1] is described as follows: Metabolism of AC, MA and HA in rat liver microsomes by HPLC. The series is classed as in vitro ADME. The settings on record: NADPH. Here is the method:
Agilent C18 column (4.60 mm × 150 mm, 5μm), mobile phase A was 20 mmol / L ammonium acetate and 0.1% formic acid aqueous solution, mobile phase B was methanol, isocratic elution, A: B = 60:40, flow rate was 1 ml / min, detection wavelength was 240 nm, column temperature was 30°C, injection volume was 20 μL.
1 mg / ML microsome 100 μL, PBS 75 μL and aconitine alkaloids 5 μL (AC, MA and HA: 1 mmol / L) were added. 20 μL NADPH (10 mmol / L) was added to start the reactionand, AC and HA were incubated for 90 min, MA were incubated for 120 min. The reaction was terminated by adding 200 μL glacial acetonitrile, 12 000 r / min at 4°C for 10 min, and 20 μL supernatant was used for HPLC.

A short description of series [2]: Plasma concentration of AC, MA and HA in rats by LC-MS/MS. The format is in vivo, rat. As to conditions: for Plasma concentration: single animals. Set-up: Plasma concentration: unit not given here. The procedure: 12 SD rats were randomly divided into Aconitum and Glycyrrhizae combind with Aconitum group, 6 rats in each group, 2 mL / kg was given by gavage respectively.

A short description of series [3]: in vitro. The settings on record: SD, rat, microsomes.
Series [4] relates to CYP3A1 mRNA. The series is described as follows: CYP3A1 mRNA expression in rat liver after 14 days dosing (RT-PCR). The format is in vivo. As to conditions: positive induction 0.08 g/kg/D, single replicates. From the text:
(§1) All animal procedures, including killing, were approved by the Institutional Animal Care and Use Committee at Medical College of Shanghai University of TCM. 25 SD rats, weighing 180–200 g, were purchased from Shanghai SLAC Laboratory Animal company and fed in SPF environmental condition. The rats were randomly divided into negative control, phenobarbital positive induction (0.08 g / kg / D) and Glycyrrhiza groups with different concentrations (0.33 g / kg / D, 1 g / kg / D and 3 g / kg / D), with 5 rats in each group, intragastric administration for 14 days. The phenobarbital induced group was given intraperitoneal injection three days before treatment. The animals were killed by CO2 asphyxiation, liver microsomes were prepared and were used to detect the expression of CYP3A1 / 2 mRNA in liver tissue.
(§2) Total RNA was extracted using Trizol reagent according to the manufacturer’s instructions. 1μg of total RNA was transcribed to cDNA using the PrimeScriptTM RT Master Mix kit (TaKaRa, China). Quantitative RT-PCR was performed in a reaction volume of 20μL cDNA on ABI system (Applied Biosystems, Life Technologies). The average cycle thresholds (Ct) were employed to quantify fold-change. The 2^-△△CT method was reported to calculate relative gene expression levels.

In series [5] the test system is CYP3A2 mRNA. The series is described as follows: CYP3A2 mRNA expression in rat liver after 14 days dosing (RT-PCR). The format is in vivo. As to conditions: positive induction 0.08 g/kg/D, single replicates.
Excerpt: as §1, §2

For series [6], the system named is CHF rat model. Kind of series: ATP, ADP and AMP in left ventricular myocardium (HPLC) of ADR-induced CHF rats. The format is in vivo. As to conditions: 5 mL/kg/D gavage 4 weeks. The procedure: According to reference, the rat model of CHF was established by intraperitoneal injection of ADR (2.5 mg / kg) once a week for six weeks. 6 weeks later, the rats were randomly divided into model group, Aconitum (0.3 g / mL), Glycyrrhizae combind with Aconitum (0.6 g / mL) and Captopril (1.25 mg / mL) group. Each treatment group was given 5 mL / kg / D by gavage for 4 weeks, the normal and model group were given the same volume of distilled water by gavage. After the last administration, the rats were killed by CO2 asphyxia, and the indexes were determined.
Weighed 100 mg of left ventricular myocardium of rats, cut into pieces, added 500 μL 4.2% perchloric acid, homogenized in ice bath, 3 000 r / min, 4°C for 15 min. Took 200 μL of the supernatant, added 135 μL of 1 mol / L NaOH, adjusted the pH to about 6.0, shaked and mixed, 8 000 r / min, 4°C for 10 min, and took 20 μL of the supernatant for HPLC analysis. There was a good linear relationship between the peak area measured by HPLC and the concentrations of ATP, AMP and ADP, and the content was calculated according to the standard curve.

The structures appear in SMILES notation. Where “and” joins values, the source holds several entries; their conditions need not be identical. Identical values can stand only once.

Turning to `COC[C@@]12CC[C@H](OC)[C@]34C(C([C@H](OC)[C@H]13)[C@]1(OC(C)=O)[C@H]3[C@@H](OC(=O)c5ccccc5)[C@](O)(C[C@H]34)[C@@H](OC)[C@@H]1O)N(C)C2` [HA, hypaconitine], the “metabolites produced in RLMs” value in series [1] is “two metabolites”. In addition, the “plasma concentration with compatibility of Glycyrrhizae and Aconitum vs Aconitum alone” value in series [2] (2 mL/kg by gavage) is recorded as “significantly lower”. Besides, the Plasma concentration in series [2] (Aconitum 2 mL/kg gavage, 10 min) is 0.964 and 1.77 and 0.583 and 0.492 and 0.28; in series [2] (Aconitum 2 mL/kg gavage, 20 min) it was 1.07 (2×) and 1.95 and 0.668 and 0.566; in series [2] (Aconitum 2 mL/kg gavage, 30 min), 1.2 and 2.66 and 1.06 and 0.923 and 0.551; in series [2] (Aconitum 2 mL/kg gavage, 45 min), 1.22 and 2.65 and 1.35 and 0.88 and 0.451; in series [2] (Aconitum 2 mL/kg gavage, 60 min), 1.83 and 3.39 and 1.29 and 0.737 and 0.573; in series [2] (Aconitum 2 mL/kg gavage, 90 min), 2.02 and 2.54 and 1.07 and 0.724 and 0.474. Also, the Plasma concentration in series [2] (Aconitum 2 mL/kg gavage, 120 min) was 1.44 and 2.32 and 0.775 and 0.501 and 0.434; in series [2] (Aconitum 2 mL/kg gavage, 240 min) it was 0.658 and 0.936 and 0.168 and 0.375 and 0.151; in series [2] (Aconitum 2 mL/kg gavage, 360 min), 0.287 and 0.417 and 0.0407 and 0.175 and 0.0302; in series [2] (Aconitum 2 mL/kg gavage, 480 min), 0.104 and 0.179 and 0.00087 and 0.0398 and 0; in series [2] (Glycyrrhizae + Aconitum 2 mL/kg gavage, 10 min) it was 0.519 and 1.06 and 0.945 and 0.416 and 0.07; in series [2] (Glycyrrhizae + Aconitum 2 mL/kg gavage, 20 min), 0.52 and 1.66 and 1.4 and 0.661 and 0.18. For the same compound, the Plasma concentration in series [2] (Glycyrrhizae + Aconitum 2 mL/kg gavage, 30 min) is 0.774 and 1.59 and 1.79 and 1.06 and 0.53; in series [2] (Glycyrrhizae + Aconitum 2 mL/kg gavage, 45 min), 1.02 and 1.61 and 1.74 and 0.809 and 0.75; in series [2] (Glycyrrhizae + Aconitum 2 mL/kg gavage, 60 min), 1.15 and 1.58 and 1.52 and 0.84 and 0.77; in series [2] (Glycyrrhizae + Aconitum 2 mL/kg gavage, 90 min) it was 0.845 and 1.4 and 1.33 and 0.925 and 0.66; in series [2] (Glycyrrhizae + Aconitum 2 mL/kg gavage, 120 min), 0.763 and 1.16 and 1.07 and 0.744 and 0.75; in series [2] (Glycyrrhizae + Aconitum 2 mL/kg gavage, 240 min), 0.288 and 0.492 and 0.287 and 0.316 and 0.924. The Plasma concentration was 0.34 and 0.239 and 0.0767 and 0.225 and 0.0462 in series [2] (Glycyrrhizae + Aconitum 2 mL/kg gavage, 360 min); 0 and 0.104 and 0.0428 and 0.0921 and 0.181 in series [2] (Glycyrrhizae + Aconitum 2 mL/kg gavage, 480 min). The microsomal CLint in series [3] (RLMs of Control rats) was 10.5 ± 0.23 µL/min/mg; in series [3] (RLMs of rats pretreated with Glycyrrhizae 0.33 g/kg) it was 12.1 ± 0.23 µL/min/mg; in series [3] (RLMs of rats pretreated with Glycyrrhizae 1 g/kg), 13.6 ± 0.4 µL/min/mg; in series [3] (RLMs of rats pretreated with Glycyrrhizae 3 g/kg), 11.6 ± 0.4 µL/min/mg; in series [3] (RLMs of rats pretreated with Phenobarbital 0.08 g/kg), 14 ± 0.4 µL/min/mg. For the same compound, the half-life in series [3] (t1/2, RLMs of Control rats) amounted to 4.39 ± 0.095 h; in series [3] (t1/2, RLMs of rats pretreated with Glycyrrhizae 0.33 g/kg) it was 3.81 ± 0.0717 h; in series [3] (t1/2, RLMs of rats pretreated with Glycyrrhizae 1 g/kg) it was 3.4 ± 0.1 h; in series [3] (t1/2, RLMs of rats pretreated with Glycyrrhizae 3 g/kg) it was 3.99 ± 0.138 h; in series [3] (t1/2, RLMs of rats pretreated with Phenobarbital 0.08 g/kg), 3.3 ± 0.0943 h.
Regarding `CCC1(c2ccccc2)C(=O)NC(=O)NC1=O` [Phenobarbital], the “CYP3A1 mRNA” value in series [4] is 8.832 and 7.88 and 8.097. Further, the “CYP3A2 mRNA” value in series [5] is 3.986 and 3.344 and 3.449.
Regarding `C[C@H](CS)C(=O)N1CCC[C@H]1C(=O)O` [captopril, Captopril], the “ADP level in left ventricular myocardium, difference vs model group” value in series [6] is recorded as -0.07185 ± 0.02716.
